Patent US7902367B2, “Cyclic amino benzoic acid derivative” (Kyorin Pharmaceutical Co., Ltd., priority 2004, dated 2011)

Target: T1, human PPARα (Homo sapiens, UniProt Q07869)
T1 construct: expressed in transfected cells; host or cells: CHO-K1 cells
T1 sequence (Q07869 239-466 limits assumed): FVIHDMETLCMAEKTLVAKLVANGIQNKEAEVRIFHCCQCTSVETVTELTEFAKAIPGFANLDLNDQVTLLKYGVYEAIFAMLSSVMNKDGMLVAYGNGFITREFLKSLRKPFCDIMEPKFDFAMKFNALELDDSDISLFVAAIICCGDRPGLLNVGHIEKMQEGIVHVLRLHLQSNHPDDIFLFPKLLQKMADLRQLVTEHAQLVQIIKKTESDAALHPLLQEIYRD
Experiment: Activation of transcription of human PPARα (Gal4-PPARα LBD luciferase reporter assay in CHO-K1 cells)
Assay type: cell-based
Details: CHO-K1 cells cotransfected with Gal4 DNA-binding domain/human PPARα ligand-binding domain receptor plasmid, firefly luciferase reporter and renilla internal standard; 20 hours at 37° C.
Text: Activation of Transcription of Human Peroxisome Proliferator-Activated Receptor (PPAR) α
CHO-K1 cells cultured in Ham's F12 medium supplemented with 10% fetal calf serum were cotransfected with the following plasmids: A receptor plasmid encoding a fusion protein consisting of the DNA-binding domain of yeast transcription factor Gal4 fused to the ligand-binding domain of human PPARα (Biochemistry, 1993, 32, 5598), a reporter plasmid (STRATAGENE, firefly luciferase reporter plasmid), and a renilla luciferase plasmid for internal standard (Promega). The cotransfection was performed over a 2-hour period by using Lipofectamine (INVITROGEN) in the absence of serum. Subsequently, a test compound was added in Ham's F12 medium supplemented with 10% defatted bovine serum. The cells were then incubated at 37° C. for 20 hours. The activity of each luciferase was then determined and corrected for internal standard.

SMILES | EC50 [nM]
Cc1nc(-c2ccc(Cl)cc2)sc1C(=O)NCC1CCCN(c2ccccc2C(=O)O)C1 (stereo not shown) [Example 18, 2-[3-[[2-(4-Chlorophenyl)-4-methylthiazol-5-yl]carbonylaminomethyl]piperidin-1-yl]benzoic acid] | 65
Cc1nc(-c2ccc(Cl)cc2)sc1C(=O)NCC1CCCN(c2cccc(C(=O)O)c2)C1 (stereo not shown) [Example 19] | 970
Cc1nc(-c2ccc(Cl)cc2)sc1CNC(=O)C1CCCN(c2ccccc2C(=O)O)C1 (stereo not shown) [Example 20] | 1360
Cc1nc(-c2ccc(Cl)cc2)sc1COCC1CCCN(c2ccccc2C(=O)O)C1 (stereo not shown) [Example 22] | 160
Cc1nc(-c2ccc(Cl)cc2)sc1COCC1CCCN(c2cccc(C(=O)O)c2)C1 (stereo not shown) [Example 24] | 1540
Cc1nc(-c2ccc(Cl)cc2)sc1COC1CCCN(c2cccc(C(=O)O)c2)C1 (stereo not shown) [Example 25] | 560
Cc1nc(-c2ccc(Cl)cc2)sc1C(=O)NC1CCCN(c2cccc(C(=O)O)c2)C1 (stereo not shown) [Example 32] | 20
